According to patent publication US11925629B2, “Heterocyclic inhibitors of ERK1 and ERK2 and their use in the treatment of cancer” (Asana Biosciences, LLC, priority 2015, dated 2024):

How the values were obtained:
[1] = system: HT-29 (colorectal carcinoma, B-RafV600E) cells; experiment: Cell proliferation (Alamar Blue) assay, HT-29; format: cell-based, human
Description: (§1) Cell Proliferation (Alamar Blue) Assay
(§2) HT-29 (colorectal carcinoma, B-RafV600E), HCT116 (colorectal carcinoma, K Ras G13D), A375 (melanoma, B-RafV600E) and SK-Mel2 (melanoma, NRAS Q61R) cells (obtained from ATCC, USA) were seeded (5000 cells/well) in 96-well tissue culture plate and incubated at 37° C./5% CO2 for 16-24 hours. The cells were then treated with compounds, at concentrations typically from 0.0005 to 10 uM prepared in 3-fold serial dilutions. The plates were then incubated for 72 h at 37° C./5% CO2 in a moist environment. Then Alamar Blue™ reagent (final concentration 1×) was added to each well and incubated for 1-3 h at 37° C./5% CO2. The plates were read on fluorescence reader at 540 nm excitation and 590 nm emission wavelengths. The IC50 values were subsequently determined using a sigmoidal dose-response curve (variable slope) using GraphPad Prism® 5 software.

[2] = system: HCT116 (colorectal carcinoma, K Ras G13D) cells; experiment: Cell proliferation (Alamar Blue) assay, HCT116; format: cell-based, human
Description: as §1, §2

[3] = Homo sapiens, HT-29, HT29 cells
[4] = Homo sapiens, HCT-116, HCT116 cells

O=C(Nc1cnn(-c2ccnc(Nc3ccccc3)c2)c1)N[C@@H](CO)c1cccc(Cl)c1 [Example 49, (R)-1-(1-(3-chloro-phenyl)-2-hydroxy-ethyl)-3-(1-(2-(phenylamino)pyridin-4-yl)-1H-pyrazol-4-yl)urea]
IC50 [1, 3]: > 2.5 µM | IC50 [2, 4]: > 2.5 µM

Cc1cnc(Nc2ccc3c(c2)OCO3)nc1-n1cc(C(=O)N[C@H](CO)c2cccc(Cl)c2)cn1 [Example 50, (S)-1-(2-(benzo[d][1,3]dioxol-5-ylamino)-5-methyl-pyrimidin-4-yl)-N-(1-(3-chloro-phenyl)-2-hydroxy-ethyl)-1H-pyrazole-4-carboxamide]
IC50 [1, 3]: > 2.5 µM | IC50 [2, 4]: > 2.5 µM

Cc1cnc(Nc2ccc3c(c2)OCO3)nc1-n1cc(NC(=O)N[C@@H](CO)c2cccc(Cl)c2)cn1 [Example 51, (R)-1-(1-(2-(benzo[d][1,3]dioxol-5-ylamino)-5-methyl-pyrimidin-4-yl)-1H-pyrazol-4-yl)-3-(1-(3-chloro-phenyl)-2-hydroxy-ethyl)urea]
IC50 [1, 3]: > 2.5 µM | IC50 [2, 4]: > 2.5 µM

Cc1cnc(Nc2ccc(F)cc2Cl)nc1-n1cc(C(=O)NC(CN)c2ccccc2)cn1 (stereo not drawn) [Example 54, N-(2-amino-1-phenylethyl)-1-(2-((2-chloro-4-fluoro-phenyl)amino)-5-methyl-pyrimidin-4-yl)-1H-pyrazole-4-carboxamide]
IC50 [1, 3]: > 2.5 µM | IC50 [2, 4]: > 2.5 µM

Cc1cnc(Nc2ccc(F)cc2Cl)nc1-n1ccc(C(=O)N[C@H](CO)c2cccc(Cl)c2)c1 [Example 57, (S)-1-(2-((2-chloro-4-fluorophenyl)-amino)-5-methyl-pyrimidin-4-yl)-N-(1-(3-chlorophenyl)-2-hydroxy-ethyl)-1H-pyrrole-3-carboxamide]
IC50 ([1]; HT29 cells): > 2.5 µM | IC50 ([2]; HCT116 cells): > 2.5 µM

Cc1cnc(Nc2ccc(F)cc2Cl)cc1-n1ccc(C(=O)NC(CO)c2ccccc2)c1 (stereo not drawn) [Example 78, 1-(2-((2-chloro-4-fluorophenyl)amino)-5-methyl-pyridin-4-yl)-N-(2-hydroxy-1-phenylethyl)-1H-pyrrole-3-carboxamide]
IC50 [1, 3]: > 2.5 µM | IC50 [2, 4]: > 2.5 µM

Cc1cnc(Nc2ccc3occc3c2)cc1-n1ccc(C(=O)NC(CO)c2ccccc2)c1 (stereo not drawn) [Example 79, 1-(2-(benzo-furan-5-ylamino)-5-methyl-pyridin-4-yl)-N-(2-hydroxy-1-phenylethyl)-1H-pyrrole-3-carboxamide]
IC50 [1, 3]: > 2.5 µM | IC50 [2, 4]: > 2.5 µM

Cc1cnc(Nc2cccnc2)cc1-n1ccc(C(=O)NC(CO)c2ccccc2)c1 (stereo not drawn) [Example 81, N-(2-hydroxy-1-phenylethyl)-1-(5-methyl-2-(pyridin-3-ylamino)pyridin-4-yl)-1H-pyrrole-3-carboxamide]
IC50 [1, 3]: > 2.5 µM | IC50 [2, 4]: > 2.5 µM

O=C(NC(CO)c1ccccc1)c1ccn(-c2ccnc(Nc3ccc(F)cc3Cl)c2)c1 (stereo not drawn) [Example 82, 1-(2-((2-chloro-4-fluorophenyl)amino)pyridin-4-yl)-N-(2-hydroxy-1-phenylethyl)-1H-pyrrole-3-carboxamide]
IC50 [1, 3]: > 2.5 µM | IC50 [2, 4]: > 2.5 µM

Cc1cnc(Nc2ccc(N3CCNCC3)cc2)cc1-n1ccc(C(=O)NC(CO)c2ccccc2)c1 (stereo not drawn) [Example 83, N-(2-hydroxy-1-phenylethyl)-1-(5-methyl-2-((4-(piperazin-1-yl)-phenyl)amino)-pyridin-4-yl)-1H-pyrrole-3-carboxamide]
IC50 [1, 3]: > 2.5 µM | IC50 [2, 4]: > 2.5 µM

O=C(NC(CO)c1ccccc1)c1ccn(-c2ccnc(Nc3ccc(F)cc3)c2)c1 (stereo not drawn) [Example 84, 1-(2-((4-fluoro-phenyl)amino)pyridin-4-yl)-N-(2-hydroxy-1-phenyl-ethyl)-1H-pyrrole-3-carboxamide]
IC50 [1, 3]: > 2.5 µM | IC50 [2, 4]: > 2.5 µM

Cc1cnc(Nc2ccc(F)cc2Cl)cc1-n1cnc(C(=O)NC(CO)c2ccccc2)c1 (stereo not drawn) [Example 85, 1-(2-((2-chloro-4-fluorophenyl)amino)-5-methyl-pyridin-4-yl)-N-(2-hydroxy-1-phenylethyl)-1H-imidazole-4-carboxamide]
IC50 [1, 3]: > 2.5 µM | IC50 [2, 4]: > 2.5 µM

Cc1cnc(Nc2ccc3c(c2)OCO3)cc1-n1cnc(C(=O)NC(CO)c2cccc(Cl)c2)c1 (stereo not drawn) [Example 88, 1-(2-(benzo[d][1,3]dioxol-5-ylamino)-5-methyl-pyridin-4-yl)-N-(1-(3-chloro-phenyl)-2-hydroxy-ethyl)-1H-imidazole-4-carboxamide]
IC50 [1, 3]: > 2.5 µM | IC50 [2, 4]: > 2.5 µM

Cc1cnc(Nc2ccccc2)cc1-n1cnc(C(=O)NC(CO)c2ccccc2)c1 (stereo not drawn) [Example 89, N-(2-hydroxy-1-phenylethyl)-1-(5-methyl-2-(phenyl-amino)pyridin-4-yl)-1H-imidazole-4-carboxamide]
IC50 [1, 3]: > 2.5 µM | IC50 [2, 4]: > 2.5 µM

Cc1cnc(Nc2ccc3c(c2)OC(F)(F)O3)cc1-n1cnc(C(=O)NC(CO)c2cccc(Cl)c2)c1 (stereo not drawn) [Example 90, N-(1-(3-chlorophenyl)-2-hydroxy-ethyl)-1-(2-((2,2-difluoro-benzo[d][1,3]dioxol-5-yl)amino)-5-methyl-pyridin-4-yl)-1H-imidazole-4-carboxamide]
IC50 [1, 3]: > 2.5 µM | IC50 [2, 4]: > 2.5 µM

Cc1cnc(Nc2ccc3c(c2)OC(F)(F)O3)cc1-n1ccc(C(=O)NC(CO)c2cccc(Cl)c2)c1 (stereo not drawn) [Example 92, N-(1-(3-chlorophenyl)-2-hydroxy-ethyl)-1-(2-((2,2-difluoro-benzo[d][1,3]dioxol-5-yl)amino)-5-methyl-pyridin-4-yl)-1H-pyrrole-3-carboxamide]
IC50 [1, 3]: 0.5 to 2.5 µM | IC50 [2, 4]: > 2.5 µM

Cc1cnc(Nc2ccc(F)cc2Cl)nc1-n1ccc(C(=O)N[C@@H](CN(C)C)c2ccccc2)c1 [Example 97, (R)-1-(2-((2-chloro-4-fluorophenyl)amino)-5-methyl-pyrimidin-4-yl)-N-(2-(dimethyl-amino)-1-phenylethyl)-1H-pyrrole-3-carboxamide]
IC50 [1, 3]: > 2.5 µM | IC50 [2, 4]: > 2.5 µM

Cc1cnc(Nc2ccc3c(c2)OC(F)(F)O3)cc1-n1cnc(C(=O)NC(CN)Cc2ccccc2)c1 (stereo not drawn) [Example 99, N-(1-amino-3-phenyl-propan-2-yl)-1-(2-((2,2-difluoro-benzo[d][1,3]dioxol-5-yl)amino)-5-methyl-pyridin-4-yl)-1H-imidazole-4-carboxamide]
IC50 [1, 3]: > 2.5 µM | IC50 [2, 4]: > 2.5 µM

Cc1cnc(Nc2cc3c(cc2Cl)OCO3)nc1-n1ccc(C(=O)NC(CO)c2cccc(Cl)c2)c1 (stereo not drawn) [Example 101, 1-(2-((6-chloro-benzo[d][1,3]dioxol-5-yl)amino)-5-methyl-pyrimidin-4-yl)-N-(1-(3-chlorophenyl)-2-hydroxy-ethyl)-1H-pyrrole-3-carboxamide]
IC50 [1, 3]: 0.5 to 2.5 µM | IC50 [2, 4]: > 2.5 µM

Cc1cnc(Nc2ccc3c(c2)OCO3)nc1-n1ccc(C(=O)NC(CO)c2cccnc2)c1 (stereo not drawn) [Example 103, 1-(2-(benzo[d][1,3]dioxol-5-ylamino)-5-methyl-pyrimidin-4-yl)-N-(2-hydroxy-1-(pyridin-3-yl)ethyl)-1H-pyrrole-3-carboxamide]
IC50 [1, 3]: > 2.5 µM | IC50 [2, 4]: > 2.5 µM

Cc1cnc(Nc2ccc3ocnc3c2)nc1-n1ccc(C(=O)NC(CO)c2ccccc2)c1 (stereo not drawn) [Example 104, 1-(2-(benzo[d]oxazol-5-ylamino)-5-methyl-pyrimidin-4-yl)-N-(2-hydroxy-1-phenylethyl)-1H-pyrrole-3-carboxamide]
IC50 [1, 3]: > 2.5 µM | IC50 [2, 4]: > 2.5 µM

Cc1cn(-c2nc(Nc3ccc(F)cc3)ncc2C)cc1C(=O)NC(CO)c1ccccc1 (stereo not drawn) [Example 108, 1-(2-((4-fluoro-phenyl)amino)-5-methyl-pyrimidin-4-yl)-N-(2-hydroxy-1-phenylethyl)-4-methyl-1H-pyrrole-3-carboxamide]
IC50 [1, 3]: > 2.5 µM | IC50 [2, 4]: > 2.5 µM

O=C(NC(CO)c1cccc(Cl)c1)c1ccn(-c2ccnc(Nc3ccc(F)cc3Cl)n2)c1 (stereo not drawn) [Example 111, 1-(2-((2-chloro-4-fluorophenyl)amino)pyrimidin-4-yl)-N-(1-(3-chlorophenyl)-2-hydroxy-ethyl)-1H-pyrrole-3-carboxamide]
IC50 [1, 3]: > 2.5 µM | IC50 [2, 4]: > 2.5 µM

NCC(Cc1ccccc1)NC(=O)c1ccn(-c2ccnc(Nc3ccc(F)cc3)c2)c1 (stereo not drawn) [Example 119, N-(1-amino-3-phenyl-propan-2-yl)-1-(2-((4-fluoro-phenyl)amino)pyridin-4-yl)-1H-pyrrole-3-carboxamide]
IC50 [1, 3]: > 2.5 µM | IC50 [2, 4]: > 2.5 µM

Cc1cnc(NC2CCOCC2)nc1-n1ccc(C(=O)NC(CO)c2ccccc2)c1 (stereo not drawn) [Example 120, N-(2-hydroxy-1-phenylethyl)-1-(5-methyl-2-((tetrahydro-2H-pyran-4-yl)amino)pyrimidin-4-yl)-1H-pyrrole-3-carboxamide]
IC50 [1, 3]: > 2.5 µM | IC50 [2, 4]: > 2.5 µM

Cc1cnc(NC2(CO)CC2)nc1-n1ccc(C(=O)NC(CO)c2ccc(F)c(Cl)c2)c1 (stereo not drawn) [Example 203, N-(1-(3-chloro-4-fluorophenyl)-2-hydroxyethyl)-1-(2-((1-(hydroxymethyl)cyclopropyl)amino)-5-methylpyrimidin-4-yl)-1H-pyrrole-3-carboxamide]
IC50 [1, 3]: > 2.5 µM | IC50 [2, 4]: > 2.5 µM

Cc1cnc(NC2CCN(C)C2)nc1-n1ccc(C(=O)N[C@H](CO)c2cccc(Cl)c2)c1 (stereo partly drawn) [Example 208, N-((S)-1-(3-chlorophenyl)-2-hydroxyethyl)-1-(5-methyl-2-((1-methylpyrrolidin-3-yl)amino)pyrimidin-4-yl)-1H-pyrrole-3-carboxamide]
IC50 [1, 3]: 0.5 to 2.5 µM | IC50 [2, 4]: > 2.5 µM
